# Assay results published in patent US5582814A, “1-(p-n-butylbenzyl) DTPA for magnetic resonance imaging” (Metasyn, Inc., priority 1994, dated 1996).
# What was measured:
# [1] = Liver and bile specificity relative to structurally similar contrast agents (summary statement); type: in vivo; conditions: relative to structurally similar contrast agents previously disclosed
# From the text: Thus, this invention provides a method for tissue-specific contrast enhancement of MR images of mammalian organs and tissues. In particular, the method allows for contrast enhancement of MR images of the hepatobiliary system. […] MS-264 can also be used for tissue-specific imaging of tumors and the blood pool.
# [2] = Relaxivity in rat liver cytosol; type: biochemical; conditions: 20 MHz, 37° C.; Gd(III) complexes in rat liver cytosol
# Procedure: The relaxivity of the Gd(III) complexes in cytosol was measured at 37 ° C. using a Bruker 20MHz Minispec equipped with a variable temperature probe. The inversion-recovery pulse sequence with 10 data points was used for T1 measurements. 1/T1 relaxation rates of solutions with varying concentrations of the chelates (0.01-0.5 mM) were determined. The limiting slope of the 1/T1 vs concentration plot at low concentrations of the chelates in units of s^-1 mM^-1 was taken as the relaxivity (R1) of the chelate in cytosol.
# Higher relaxivity values imply higher binding affinity to cytosolic proteins and/or greater relaxivity when bound.
# [3] = 1/T1 relaxation rates of excised rat liver; type: in vivo, Sprague Dawley rat; conditions: 50 μmol/kg tail vein, 20 MHz, 37° C.
# Procedure: Rats (approx. 3 per time period) were euthanized by cervical dislocation (while anesthetized by CO2) at 1, 5 and 30 min. post-injection. […] The percentage of the injected dose (% ID) in the liver was determined for each time point and the integrated area under the mean liver % ID time curve (AUC) was calculated.
# For the 5 min. time period, the 1/T1 proton relaxation rate of the excised liver was measured at 20MHz and 37° C. as described above. Higher 1/T1 values are associated with greater MRI signal intensity on T1 -weighted images and are due to greater liver uptake of the agent and/or greater relaxivity in the microenvironments of the liver.
# [4] = Rat liver uptake of 153Gd-labeled chelates; type: in vivo, Sprague Dawley rat; conditions: 50 μmol/kg tail vein
# Procedure: Un-anesthetized adult male Sprague Dawley rats (200-300 g) were injected in the tail vein with 50 μmol/kg of gadolinium chelate labeled with ^153 Gd. Rats (approx. 3 per time period) were euthanized by cervical dislocation (while anesthetized by CO2) at 1, 5 and 30 min. post-injection. The liver was analyzed for ^153 Gd concentration using a gamma counter. The percentage of the injected dose (% ID) in the liver was determined for each time point and the integrated area under the mean liver % ID time curve (AUC) was calculated.
# [5] = in vivo
# Procedure: Anesthetized (pentobarbital, 35 mg/kg, ip.) adult rabbits (2.5-4 kg) were administered 50 μmol/kg of a ^153 Gd-labeled chelate (approximately30 μCi/kg) via a cannulated marginal ear vein. Rabbits (1 per compound) were positioned supine under a gamma camera set with a photo peak energy of 100 keV +/- 20% and equipped with a low energy parallel hole collimator. Immediately after chelate administration, dynamic planar whole body scintigraphy was performed every five minutes for at least one hour. Images were acquired in a 64×64 matrix, and region of interest (ROI) analysis was performed using the Image 1.52 software package (National Institutes of Health). Percent injected does (% ID) in the liver at 5 min. intervals was calculated by dividing the counts in the liver ROI by the total counts in the body.
# [6] = Biliary excretion in monkeys; conditions: monkey, n = 2, 50 μmol/kg iv bolus
# Procedure: Two adult male cynomolgus monkeys used for scintigraphic imaging were injected on different days with iv bolus of 50 μmol/kg of the chelates labeled with ^153 Gd (approximately 40 μCi/kg). Following completion of the imaging study, the animals were placed in metabolic cages and their total urine void and excreted feces were measured using a gamma counter at 24 and 48 hr post compound administration.
Compound,liver and bile specificity [1],R1 in liver cytosol (relaxivity) [2] [s⁻¹ mM⁻¹],1/T1 of excised rat liver 5 min. post-inj. [3] [s⁻¹],Area under the % inj. dose in rat liver vs time curve (AUC) from 0 to 30 min [4],Area under the % inj. dose in rabbit liver vs time curve (AUC) from 0 to 30 min [5],% of recovered activity in feces (biliary excretion) of monkeys over 48 hr [6] [%]
gadolinium(III)-1-(p-n-butylbenzyl)diethylenetriamine pentaacetate dimeglumine salt [MS-264],surprisingly superior liver and bile specificity,23.8,14.6 ± 0.2,491,1120,
O=C(O)CN(CCN(CC(=O)O)CC(CCc1ccccc1)N(CC(=O)O)CC(=O)O)CC(=O)O (centres unmarked) [1-(phenylethyl)],,13.6,,,,
CCOc1ccc(C[C@@H](CN(CCN(CC(=O)O)CC(=O)O)CC(=O)O)N(CC(=O)O)CC(=O)O)cc1 [1-(p-ethoxybenzyl)],,14.4,10.1 ± 1.5,408,480,35 ± 3
O=C(O)CN(CCN(CC(=O)O)CC(=O)O)CCN(CC(=O)O)C(COCc1ccccc1)C(=O)O (centres unmarked) [BOPTA],,11.3,,,,
CC(C)c1ccc(CC(CN(CCN(CC(=O)O)CC(=O)O)CC(=O)O)N(CC(=O)O)CC(=O)O)cc1 (centres unmarked) [1-(p-isopropylbenzyl)],,18.7,10.9 ± 1.2,400,910,
O=C(O)CN(CCN(CC(=O)O)CC(Cc1ccccc1)N(CC(=O)O)CC(=O)O)CC(=O)O (centres unmarked) [1-(benzyl)],,11.7,,213,,
"Cc1ccc(CC(CN(CCN(CC(=O)O)CC(=O)O)CC(=O)O)N(CC(=O)O)CC(=O)O)c(C)c1 (centres unmarked) [1-(2,4-di-Me-benzyl)]",,15.3,10.2 ± 0.6,404,,
CCc1ccc(CC(CN(CCN(CC(=O)O)CC(=O)O)CC(=O)O)N(CC(=O)O)CC(=O)O)cc1 (centres unmarked) [1-(p-ethylbenzyl)],,16.4,12.3 ± 0.9,469,553,48 ± 10
diethylenetriamine pentaacetic acid [DTPA],,7.1,4.64 ± 0.16,35,,
